Values joined by “and” are separate entries in the source; they are usually repeats but may differ in a detail not shown here. Equal values may be shown once. “Also recorded” adds a separate entry of the source.
Tests used:
[1] = test system: monocytes; experiment: Chemotaxis assay, monocytes; format: cell-based, human
Procedure: Human PBMC were isolated from leukopacks obtained through the courtesy of Transfusion Medicine Department, National Institutes of Health Clinical Center (Bethesda, Md.) by Ficoll-Hypaque density gradient centrifugation. Monocytes were purified from human PBMC by Percoll gradient to yield>90% pure preparations. […] H. Ali and R. Snyderman, Duke University (Durham, N.C.) and maintained in the presence of 0.8 mg/ml geneticin (G418, Life Technologies, Rockville, Md.) in DMEM supplemented with 10% FCS. B. Chemotaxis assay Migration of phagocytes and ETFR cells was assessed using a 48-well microchemotaxis chamber (Neuroprobe, Cabin John, Md.) as previously described (Hu et al. (2001) J Leukoc Biol 70 15512). Briefly, different concentrations of stimulants were placed in the wells of the lower compartment of the chamber, and 50 μl cells (1.5×10^6 cells/ml for monocyte and neutrophil, 1×10^6 ETFR cells/ml) were added to the wells of the upper compartment. The lower and upper compartments were separated by either a 5-μm (for monocyte) or a 10-μm pore size, collagen-coated (for ETFR cells) polycarbonate filter (Osmonics, Livermore, Calif.). After incubation at 37° C. in humidified air with 5% CO2 (60 min for neutrophils, 90 min for monocytes, 4.5 h for ETFR cells), the filter was removed and stained, and the cells migrating across the filter were counted with light microscopy. The results are presented as the mean number of cells (±SD) in three high power fields (HPFs). […] After thorough washing with cold medium (RPMI 1640, 1% BSA), the cells were resuspended and assayed. To measure the effect of various signaling inhibitors, unless otherwise indicated, the cells were pre-incubated at 37° C. for 60 min with the inhibitors, and were then added to the upper wells of the chemotaxis chamber.

[2] = test system: neutrophils; experiment: Calcium flux (Fura-2), neutrophils; format: cell-based, human
[3] = test system: parental RBL cells; experiment: Chemotaxis assay, parental RBL cells; format: cell-based, rat; conditions: parental RBL cells without FPR
Procedure: Human PBMC were isolated from leukopacks obtained through the courtesy of Transfusion Medicine Department, National Institutes of Health Clinical Center (Bethesda, Md.) by Ficoll-Hypaque density gradient centrifugation. Monocytes were purified from human PBMC by Percoll gradient to yield>90% pure preparations. […] H. Ali and R. Snyderman, Duke University (Durham, N.C.) and maintained in the presence of 0.8 mg/ml geneticin (G418, Life Technologies, Rockville, Md.) in DMEM supplemented with 10% FCS. B. Chemotaxis assay Migration of phagocytes and ETFR cells was assessed using a 48-well microchemotaxis chamber (Neuroprobe, Cabin John, Md.) as previously described (Hu et al. (2001) J Leukoc Biol 70 15512). Briefly, different concentrations of stimulants were placed in the wells of the lower compartment of the chamber, and 50 μl cells (1.5×10^6 cells/ml for monocyte and neutrophil, 1×10^6 ETFR cells/ml) were added to the wells of the upper compartment. The lower and upper compartments were separated by either a 5-μm (for monocyte) or a 10-μm pore size, collagen-coated (for ETFR cells) polycarbonate filter (Osmonics, Livermore, Calif.). After incubation at 37° C. in humidified air with 5% CO2 (60 min for neutrophils, 90 min for monocytes, 4.5 h for ETFR cells), the filter was removed and stained, and the cells migrating across the filter were counted with light microscopy. […]

[4] = test system: monocytes; experiment: Calcium flux (Fura-2), monocytes; format: cell-based, human
Procedure: Monocytes or ETFR cells (10^7 cells/ml in RPMI 1640 containing 10% FBS) were loaded with 5 μM Fura-2 at room temperature (30 min for monocytes, 60 min for ETFR cells) in the dark. The cells were washed and resuspended (0.5×10^6 cells/ml) in saline buffer (138 mM NaCl, 6 mM KCl, 1 mM CaCl2, 10 mM HEPES, 5 mM glucose, and 1% BSA, pH 7.4). Two milliliters of the cell suspension were transferred to a quartz cuvette, which was placed in a luminescence spectrometer LS55 (Perkin-Elmer, Beaconsfield, UK). Calcium mobilization was measured by recording the ratio of the fluorescence excited at 340 and 380 nm in response to stimulants.

[5] = test system: neutrophils; experiment: Chemotaxis assay, neutrophils; format: cell-based, human; conditions: neutrophils
Procedure: Human PBMC were isolated from leukopacks obtained through the courtesy of Transfusion Medicine Department, National Institutes of Health Clinical Center (Bethesda, Md.) by Ficoll-Hypaque density gradient centrifugation. Monocytes were purified from human PBMC by Percoll gradient to yield>90% pure preparations. […] H. Ali and R. Snyderman, Duke University (Durham, N.C.) and maintained in the presence of 0.8 mg/ml geneticin (G418, Life Technologies, Rockville, Md.) in DMEM supplemented with 10% FCS. B. Chemotaxis assay Migration of phagocytes and ETFR cells was assessed using a 48-well microchemotaxis chamber (Neuroprobe, Cabin John, Md.) as previously described (Hu et al. (2001) J Leukoc Biol 70 15512). Briefly, different concentrations of stimulants were placed in the wells of the lower compartment of the chamber, and 50 μl cells (1.5×10^6 cells/ml for monocyte and neutrophil, 1×10^6 ETFR cells/ml) were added to the wells of the upper compartment. The lower and upper compartments were separated by either a 5-μm (for monocyte) or a 10-μm pore size, collagen-coated (for ETFR cells) polycarbonate filter (Osmonics, Livermore, Calif.). After incubation at 37° C. in humidified air with 5% CO2 (60 min for neutrophils, 90 min for monocytes, 4.5 h for ETFR cells), the filter was removed and stained, and the cells migrating across the filter were counted with light microscopy. The results are presented as the mean number of cells (±SD) in three high power fields (HPFs). For analysis of cross-desensitization, cells were pretreated with indicated reagents for 1 h at 37° C. After thorough washing with cold medium (RPMI 1640, 1% BSA), the cells were resuspended and assayed. To measure the effect of various signaling inhibitors, unless otherwise indicated, the cells were pre-incubated at 37° C. for 60 min with the inhibitors, and were then added to the upper wells of the chemotaxis chamber.

[6] = test system: PKCα/β; experiment: PKCα/β translocation in ETFR cells; format: cell-based, rat; conditions: 100 nM fMLF, 10 μg/ml CaG or PMA 500 nM, 37° C. 10 min
Procedure: ETFR cells were seeded on coverslips and cultured overnight in DMEM containing 1% FCS at 37° C. After further culture in FCS-free DMEM for 3 h, cells were treated with stimulants for indicated time periods at 37° C. and were then fixed in 4% paraformaldehyde for 5 min at room temperature. The cells were permeabilized with 0.2% Tween 20 for 30 min at 4° C. and the reaction was blocked with 5% goat normal serum for 15 min at room temperature. The rabbit anti-PKCα/β, δ, and ξ, antibodies (1:1000 in DPBS) were applied separately for 1 h at room temperature. After three rinses with DPBS, the cells were stained with FITC-labeled goat anti-rabbit secondary antibody (PharMingen, 1:1000 in DPBS) for 1 h at room temperature. The coverslips were mounted with an anti-fade, water-based mounting medium with Propidium Iodide (PI) (Vector Lab, Burlingamem, Calif.) and analyzed under a laser scanning confocal fluorescence microscope (Zeiss LSM510 NLO Meta, Jena, Germany). Excitation wavelengths 488 (for FITC) and 568 (for PI) nm were used to generate fluorescence emission in green and red, respectively.

[7] = concentrations up to 20 μg/ml (800 nM)

CaG: Cathepsin G, serine protease purified from neutrophil granules, purchased from Athens Research & Technology
concentration of maximal activity in monocyte migration ([1]; human monocytes): 5 μg/ml and 200 nM | monocyte migration induced by stimulant ([1]; human monocytes): dose-dependently induced monocyte migration | concentration range potently chemotactic ([1]; monocytes): 4 to 400 nM | attenuation of monocyte chemotaxis to fMLF after preincubation ([1]; preincubated with CaG 10 μg/ml 30 min 37° C., low concentrations of fMLF): able to attenuate monocyte chemotaxis to low concentrations of fMLF | Ca2+ flux ([2]; CaG 10 μg/ml): failed to induce significant Ca^2+ flux | attenuation of Ca2+ response to fMLF ([2]; CaG 10 μg/ml, 0.1 nM fMLF): attenuated cell response induced by low concentrations of fMLF; also recorded: significantly attenuated cell response to 0.1 nM fMLF | Ca2+ mobilizing activity [2, 7]: lacked significant Ca^2+ mobilizing activity | migration of parental RBL cells [3]: Neither CaG nor fMLF induced migration of parental RBL cells | Ca2+ flux ([4]; CaG 10 μg/ml): failed to induce significant Ca^2+ flux | attenuation of Ca2+ response to fMLF ([4]; CaG 10 μg/ml, 0.1 nM fMLF): attenuated cell response induced by low concentrations of fMLF; also recorded: significantly attenuated cell response to 0.1 nM fMLF | Ca2+ mobilizing activity [4, 7]: lacked significant Ca^2+ mobilizing activity | concentration range potently chemotactic [5]: 4 to 400 nM | translocation of PKCα/β [6]: did not induce translocation of PKCα and β
